Measurements as given in article PMC10073911, “N-Arylacetamide derivatives of methyl 1,2-benzothiazine-3-carboxylate as potential drug candidates for urease inhibition” (Royal Society Open Science, 2023).
Where “and” joins values, the source holds several entries; their conditions need not be identical. Equal entries are not always repeated. Where two headings read alike, the source gives them in different places.

Assays:
urease = urease (Canavalia ensiformis, UniProt P07374); test: biochemical; details: indophenol method, urea substrate 100 mM, absorbance at 630 nm, triplicate
[1] = urease inhibition IC50 ± s.e.m.
[2] = read-out: urease inhibition IC50 ± s.e.m.

Chain of urease (P07374 whole entry, looked up): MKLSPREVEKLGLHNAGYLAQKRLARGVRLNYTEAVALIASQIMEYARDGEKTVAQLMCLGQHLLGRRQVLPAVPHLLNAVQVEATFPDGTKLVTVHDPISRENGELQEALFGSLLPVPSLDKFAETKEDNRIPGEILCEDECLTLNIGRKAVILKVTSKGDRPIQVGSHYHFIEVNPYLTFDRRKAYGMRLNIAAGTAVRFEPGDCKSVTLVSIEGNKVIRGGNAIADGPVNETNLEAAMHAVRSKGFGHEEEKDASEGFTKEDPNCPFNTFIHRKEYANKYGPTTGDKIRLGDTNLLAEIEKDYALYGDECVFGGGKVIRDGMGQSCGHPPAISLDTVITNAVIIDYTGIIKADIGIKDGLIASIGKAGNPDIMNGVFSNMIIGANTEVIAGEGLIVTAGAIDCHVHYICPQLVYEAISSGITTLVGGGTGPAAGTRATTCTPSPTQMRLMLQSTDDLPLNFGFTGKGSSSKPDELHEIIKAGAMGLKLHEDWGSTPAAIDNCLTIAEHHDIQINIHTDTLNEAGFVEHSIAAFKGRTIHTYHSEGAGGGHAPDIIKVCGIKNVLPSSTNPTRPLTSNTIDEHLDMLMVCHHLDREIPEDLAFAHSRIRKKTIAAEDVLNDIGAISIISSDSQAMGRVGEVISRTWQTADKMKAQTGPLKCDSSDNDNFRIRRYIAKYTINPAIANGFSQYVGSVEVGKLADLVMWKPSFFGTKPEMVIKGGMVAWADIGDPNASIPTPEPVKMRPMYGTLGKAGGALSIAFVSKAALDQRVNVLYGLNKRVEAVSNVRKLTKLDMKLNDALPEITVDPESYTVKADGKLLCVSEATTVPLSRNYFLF

Question: Which IC50 (urease; [1]) does the source give for `COC(=O)C1=C(O)c2ccccc2S(=O)(=O)N1CC(=O)Nc1cccc(Cl)c1Cl` [5m, Methyl 2-(2-((2,3-dichlorophenyl)amino)-2-oxoethyl)-4-hydroxy-2H-benzo[e][1,2]thiazine-3-carboxylate 1,1-dioxide] here?
Answer: The IC50 was 14 µM and 14.1 µM.

Question: What about the melting point of the same compound?
Answer: Its melting point is 154 to 156 °C.

Question: Which IC50 (urease; [1]) does the source give for `COC(=O)C1=C(O)c2ccccc2S(=O)(=O)N1CC(=O)Nc1ccc(Cl)cc1Cl` [5n, Methyl 2-(2-((2,4-dichlorophenyl)amino)-2-oxoethyl)-4-hydroxy-2H-benzo[e][1,2]thiazine-3-carboxylate 1,1-dioxide] here?
Answer: Its IC50 is 13 µM and 13.1 µM.

Question: With `CCOC(=O)c1ccc(NC(=O)CN2C(C(=O)OC)=C(O)c3ccccc3S2(=O)=O)cc1` [5k, Methyl 2-(2-((4-(ethoxycarbonyl)phenyl)amino)-2-oxoethyl)-4-hydroxy-2H-benzo[e][1,2]thiazine-3-carboxylate 1,1-dioxide] as the compound, how does the IC50 (urease; [1]) read?
Answer: The IC50 was 9.8 ± 0.023 µM.

Question: With `COC(=O)C1=C(O)c2ccccc2S(=O)(=O)N1CC(=O)Nc1cccc(C)c1` [5f, Methyl 4-hydroxy-2-(2-oxo-2-(m-tolylamino)ethyl)-2H-benzo[e][1,2]thiazine-3-carboxylate 1,1-dioxide] as the compound, how does the IC50 (urease; [1]) read?
Answer: The IC50 was 15.5 ± 1.35 µM.

Question: And the melting point?
Answer: The melting point was 192 to 194 °C.

Question: Which IC50 (urease; [1]) does the source give for `COC(=O)C1=C(O)c2ccccc2S(=O)(=O)N1CC(=O)Nc1ccccc1C(=O)OC` [5d, Methyl 4-hydroxy-2-(2-((2-(methoxycarbonyl)phenyl)amino)-2-oxoethyl)-2H-benzo[e][1,2]thiazine-3-carboxylate 1,1-dioxide] here?
Answer: Its IC50 is 14.1 ± 0.12 µM.

Question: And the melting point?
Answer: The melting point was 178 to 180 °C.

Question: With `COC(=O)C1=C(O)c2ccccc2S(=O)(=O)N1CC(=O)Nc1ccc(C)cc1` [5h, Methyl 4-hydroxy-2-(2-oxo-2-(p-tolylamino)ethyl)-2H-benzo[e][1,2]thiazine-3-carboxylate 1,1-dioxide] as the compound, how does the IC50 (urease; [1]) read?
Answer: Its IC50 is 16.4 ± 1.4 µM.

Question: With `COC(=O)C1=C(O)c2ccccc2S(=O)(=O)N1CC(=O)Nc1cccc(OC)c1` [5e, Methyl 4-hydroxy-2-(2-((3-methoxyphenyl)amino)-2-oxoethyl)-2H-benzo[e][1, 2]thiazine-3-carboxylate 1,1-dioxide] as the compound, how does the IC50 (urease; [2]) read?
Answer: The IC50 was 18.2 ± 1.69 µM.

Question: Which results are given for `COC(=O)C1=C(O)c2ccccc2S(=O)(=O)N1CC(=O)Nc1ccccc1C` [5c, Methyl 4-hydroxy-2-(2-oxo-2-(o-tolylamino)ethyl)-2H-benzo[e][1,2]thiazine-3-carboxylate 1,1-dioxide]?
Answer: IC50 (urease; [1]): 17.2 ± 1.1 µM; melting point: 172 to 174 °C

Question: For `COC(=O)C1=C(O)c2ccccc2S(=O)(=O)N1CC(=O)Nc1ccccc1OC` [5b, Methyl 4-hydroxy-2-(2-((2-methoxyphenyl)amino)-2-oxoethyl)-2H-benzo[e][1,2]thiazine-3-carboxylate 1,1-dioxide], which IC50 (urease; [1]) is on record?
Answer: Its IC50 is 14.9 ± 1.5 µM.

Question: With `COC(=O)C1=C(O)c2ccccc2S(=O)(=O)N1CC(=O)Nc1ccc([N+](=O)[O-])cc1` [5j, Methyl 4-hydroxy-2-(2-((4-nitrophenyl)amino)-2-oxoethyl)-2H-benzo[e][1,2]thiazine-3-carboxylate 1,1-dioxide] as the compound, how does the IC50 (urease; [1]) read?
Answer: Its IC50 is 17.1 ± 1.45 µM.

Question: And the melting point?
Answer: The melting point was 192 to 194 °C.

Question: Which IC50 (urease; [1]) does the source give for `COC(=O)C1=C(O)c2ccccc2S(=O)(=O)N1CC(=O)Nc1ccc(Cl)cc1` [5i, Methyl 2-(2-((4-chlorophenyl)amino)-2-oxoethyl)-4-hydroxy-2H-benzo[e][1,2]thiazine-3-carboxylate 1,1-dioxide] here?
Answer: The IC50 was 20.7 ± 0.25 µM.

Question: For `NC(N)=S` [thiourea, reference compound], which IC50 (urease; [2]) is on record?
Answer: Its IC50 is 22.3 ± 0.031 µM.

Question: Which IC50 (urease; [1]) does the source give for `COC(=O)C1=C(O)c2ccccc2S(=O)(=O)N1CC(=O)Nc1ccc(NC(C)=O)cc1` [5l, Methyl 2-(2-((4-acetamidophenyl)amino)-2-oxoethyl)-4-hydroxy-2H-benzo[e][1,2]thiazine-3-carboxylate 1,1-dioxide] here?
Answer: The IC50 was 12.6 ± 0.1 µM.

Question: With `COC(=O)C1=C(O)c2ccccc2S(=O)(=O)N1CC(=O)Nc1ccc(OC)cc1` [5g, Methyl 4-hydroxy-2-(2-((4-methoxyphenyl)amino)-2-oxoethyl)-2H-benzo[e][1,2]thiazine-3-carboxylate 1,1-dioxide] as the compound, how does the IC50 (urease; [1]) read?
Answer: Its IC50 is 20.4 ± 1.81 µM.

Question: And the melting point?
Answer: Its melting point is 176 to 178 °C.

Question: With `COC(=O)C1=C(O)c2ccccc2S(=O)(=O)N1CC(=O)Nc1ccccc1` [5a, Methyl 4-hydroxy-2-(2-oxo-2-(phenylamino)ethyl)-2H-benzo[e][1,2]thiazine-3-carboxylate 1,1-dioxide] as the compound, how does the IC50 (urease; [1]) read?
Answer: Its IC50 is 10.1 ± 0.9 µM.

Question: And the melting point?
Answer: The melting point was 188 to 190 °C.
